Experiment: In vitro cytotoxicity tested as inhibitory concentration against carcinoma KB cell line
Type: functional, cell-based
Settings: Homo sapiens

Row | SMILES | IC50 [µM]
1 | CO[C@@H]1CCOP(=O)(NCCCl)N1CCCl (stereo partly drawn) | 22
2 | CO[C@H]1CCOP(=O)(NCCCl)N1CCCl (stereo partly drawn) | 20
3 | O=P1(NCCCl)OCCC(O)N1CCCl (stereo not drawn) [ALDOIFOSFAMIDE] | 10
